Like-named read-outs stand apart in the source and are kept apart here.
Target: full length NS3/4a (Hepatitis C virus genotype 1b (isolate BK) (HCV), UniProt P26663)
Test: NS3 Protease Assay (Example A), FRET-based
Type: biochemical
Outline: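 Initial rates were taken from fluorescence progress curves over 30 min at room temperature, and IC50 was fitted across replicates. In-house full-length NS3/4a cleaved a FRET peptide (5-FAMsp/QXL520) from the NS4A/B site. Medium: 50 mM Tris pH8, 20 mM DTT, 1% CHAPS, 10% glycerol, 5% DMSO.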

[1] = HCV NS3 protease assay, full length NS3/4a, read-out: Assay A IC50 (μM) average
[2] = read-out: IC50 against the protease activity of the full length NS3/4a
[3] = stated as IC50 less than 30 μM or at least 40% inhibition at a concentration of 100 μM, read-out: IC50 against the protease activity of the full length NS3/4a

Sequence of full length NS3/4a (P26663 1027-1657): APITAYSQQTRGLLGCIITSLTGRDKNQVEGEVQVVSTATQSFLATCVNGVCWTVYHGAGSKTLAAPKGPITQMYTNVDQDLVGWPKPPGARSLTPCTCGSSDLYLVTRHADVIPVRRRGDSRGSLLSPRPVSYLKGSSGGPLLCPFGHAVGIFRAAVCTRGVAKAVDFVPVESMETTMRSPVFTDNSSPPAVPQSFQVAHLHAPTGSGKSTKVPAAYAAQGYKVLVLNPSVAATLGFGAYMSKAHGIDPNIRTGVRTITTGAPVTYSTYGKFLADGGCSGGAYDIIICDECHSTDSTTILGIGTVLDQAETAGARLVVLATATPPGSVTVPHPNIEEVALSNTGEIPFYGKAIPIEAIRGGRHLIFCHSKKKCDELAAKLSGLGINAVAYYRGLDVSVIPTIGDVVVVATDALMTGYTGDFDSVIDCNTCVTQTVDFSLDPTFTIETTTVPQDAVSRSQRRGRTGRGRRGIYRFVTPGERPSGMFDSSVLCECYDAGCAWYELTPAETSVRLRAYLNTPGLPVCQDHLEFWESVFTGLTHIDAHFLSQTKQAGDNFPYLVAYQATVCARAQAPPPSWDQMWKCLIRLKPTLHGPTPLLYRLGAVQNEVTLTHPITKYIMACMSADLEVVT

Row | SMILES | IC50 [1] | IC50 [2] | other results
1 | CC[C@@H](N[C@H](C)CC(N)=O)c1ccc(Cl)c(C(=O)c2cccc(O)c2)c1F [Example 228, (3R)-3-{[(1R)-1-{4-chloro-2-fluoro-3-[(3-hydroxyphenyl)carbonyl]phenyl}propyl]amino}butanamide] | 0.73 µM | < 1 µM | 
2 | CC[C@@H](N[C@H](C)CC(N)=O)c1ccc(Cl)c(C(=O)c2ccc(O)cc2)c1F [Example 231, (3R)-3-{[(1R)-1-{4-chloro-2-fluoro-3-[(4-hydroxyphenyl)carbonyl]phenyl}propyl]amino}butanamide] | 2.1 µM | 1 to 5 µM | 
3 | CC[C@@H](N[C@H](C)CC(N)=O)c1ccc(Cl)c(C(=O)c2ccc(N)nn2)c1F [Example 233, (3R)-3-{[(1R)-1-{3-[(6-aminopyridazin-3-yl)carbonyl]-4-chloro-2-fluorophenyl}propyl]amino}butanamide] |  |  | inhibition at 10 µM (@ 10 uM): 40%; IC50 [3]: < 30 µM
4 | CC[C@@H](N[C@H](C)CC(N)=O)c1ccc(Cl)c(C(=O)c2ccc(C#N)c(OC)c2)c1F [Example 236, (3R)-3-{[(1R)-1-{4-chloro-3-[(4-cyano-3-methoxyphenyl)carbonyl]-2-fluorophenyl}propyl]amino}butanamide] |  |  | inhibition at 1 µM (@ 1 uM): 56%; IC50 [3]: < 30 µM
5 | CC[C@@H](N[C@@H](C)CC(=O)NCCN)c1ccc(Cl)c(C(=O)c2ccc(N)nc2)c1F [Example 240, (3S)-N-(2-aminoethyl)-3-{[(1 R)-1-{3-[(6-aminopyridin-3-yl)carbonyl]-4-chloro-2-fluorophenyl}propyl]amino}-butanamide] |  |  | inhibition at 0.03 µM (@ 0.03 uM): 48%; IC50 [3]: < 30 µM
6 | CC[C@@H](N[C@H](C)CC(=O)NCCN)c1ccc(Cl)c(C(=O)c2ccc(N)nc2)c1F [Example 241, (3R)-N-(2-aminoethyl)-3-{[(1R)-1-{3-[(6-aminopyridin-3-yl)carbonyl]-4-chloro-2-fluorophenyl}propyl]amino}-butanamide] | 0.036 µM |  | 
7 | CC[C@@H](N[C@H](C)CC(=O)NCCO)c1ccc(Cl)c(C(=O)c2ccc(N)nc2)c1F [Example 243, (3R)-3-{[(1R)-1-{3-[(6-aminopyridin-3-yl)carbonyl]-4-chloro-2-fluorophenyl}propyl]amino}-N-(2-hydroxyethyl)butanamide] | 0.43 µM |  | 
8 | CC[C@@H](N[C@H](C)CC(N)=O)c1ccc(Cl)c(C(=O)c2ccc(N)c(Cl)c2)c1F [Example 244, (3R)-3-{[(1R)-1-{3-[(4-amino-3-chlorophenyl)carbonyl]-4-chloro-2-fluorophenyl}propyl]amino} butanamide] | 0.38 µM |  | 
9 | C[C@H](CC(N)=O)N[C@@H](c1ccc(Cl)c(C(=O)c2ccc(C#N)cn2)c1F)C1CC1 [Example 245, (3R)-3-{[(R)-{4-chloro-3-[(5-cyanopyridin-2-yl)carbonyl]-2-fluorophenyl}(cyclopropyl)methyl]amino}butanamide] | 3.4 µM | 1 to 5 µM | 
10 | CC[C@@H](N[C@H](C)CC(N)=O)c1ccc(Cl)c(C(=O)c2cc(C)c(N)cn2)c1F [Example 246, (3R)-3-{[(1R)-1-{3-[(5-amino-4-methylpyridin-2-yl)carbonyl]-4-chloro-2-fluorophenyl}propyl]amino} butanamide] | 3.9 µM | 1 to 5 µM | 
11 | CC[C@@H](N[C@H](C)CC(N)=O)c1ccc(Cl)c(C(=O)c2ccc3c(c2)OCC(=O)N3)c1F [Example 248, (3R)-3-{[(1R)-1-{4-chloro-2-fluoro-3-[(3-oxo-3,4-dihydro-2H-1,4-benzoxazin-7-I)carbonyl]phenyl}propyl]amino}butanamide] | 2 µM | 1 to 5 µM | 
12 | CC[C@@H](N[C@H](C)CC(N)=O)c1ccc(OC)c(C(=O)c2ccc(N)nc2)c1F [Example 253, (3R)-3-{[(1R)-1-{3-[(6-aminopyridin-3-yl)carbonyl]-2-fluoro-4-methoxyphenyl}propyl]amino}butanamide] | 1.4 µM | 1 to 5 µM | 

— patent US9145354B2, “Pharmaceutical compounds” (priority 2011, dated 2015)
